Measurements taken from patent US20250361252A1 (EVER Neuro Pharma GmbH, priority 2022, published 2025).

Key:
[1] = in vivo; cited from earlier work
[2] = single dose; cited from earlier work
[3] = cited from earlier work
[4] = in NaCl solution; cited from earlier work
[5] = system: human hepatocytes; experiment: Metabolic stability / conversion to apomorphine on incubation with human hepatocytes

N[C@@H](Cc1ccc(O)c(O)c1)C(=O)O [L-dopa]
plasma half-life [1]: 60 to 90 min

CN1CCc2cccc3c2[C@H]1Cc1ccc(O)c(O)c1-3 [apomorphine]
duration of effect (mean) [2]: 40 min | incidence of nodule formation ([3]; subcutaneous infusion therapy, meta-analysis): 70% | patients terminating therapy because of irritations ([3]; subcutaneous infusion, within one year): 70% | solubility [4]: < 10000 µg/mL

Apomorphine Monophosphate Calcium Salt [VIR-1-097-Ca]
solubility in water: Reduced solubility in water

Apomorphine Monophosphate Potassium Salt [VIR-1-097-K]
solubility in water: highly soluble in water

apomorphine monophosphate
formation of apomorphine in cell-free control group ([5]; cell-free negative control): no significant formation of apomorphine | conversion of prodrug into apomorphine ([5]; human hepatocytes): rapidly converted into apomorphine | half-life of apomorphine monophosphate ([5]; human hepatocytes): 33 min | time of highest amount of apomorphine found ([5]; human hepatocytes): 10 min | apomorphine monophosphate converted to apomorphine ([5]; human hepatocytes, within 10 min): about 30% | apomorphine monophosphate consumed ([5]; human hepatocytes, within 60 minutes): about 75%
